# Assay results: publication PMC10517971, “An inverse agonist of orphan receptor GPR61 acts by a G protein-competitive allosteric mechanism” (Nature Communications, 2023)
# Molecular target: Cav1.2 (Homo sapiens, UniProt Q13936)
# Experiment: cell-based
# From the text: 105 hERG, Nav1.5 and Cav1.2 Ion Channel Profiling
# 106 Ionic curr ents wer e evalu ated in the whole-cell con figuration using the Qube384 automated planar
# 107 patch clamp platform (Sophion Bioscience A/S, Ballerup, Denmark). […]
# 113 experiments, the ext ernal solution was composed of (in mM): 137.9 NaCl, 5.3 KCl, 0.49 MgCl2,
# 115 mOsM. The internal solution contained (in mM ): 27 CF, 112 CsCl, 2 MgCl2, 10 EGTA, 10
# 116 HEPES, 2 Na2ATP, pH 7.2, 305 mOsM. […]
# 123 at a rate of 0.05 Hz. Peak hERG current was measured during the ramp. The Cav1.2 current was
# 124 elicited by a voltage step to 0 mV for 150 ms from a holding potential of -40 mV. Voltage steps
# 125 were repeated at 0.05 Hz, and Cav1.2 amplitude was measured as the peak current at 0 mV. For
# 126 Nav1.5 current, from a holding potential of - 80 mV, a 200 ms prepulse to - 120 mV was used to
# 127 homogenize channel inactivation, followed by a 40 ms step to a test potential of - 15 mV.
# 128 Membrane potential was further depolarized to +40 mV for 200 ms to completely inactivate the
# 129 peak Nav1.5 current, followed by a ramp from +40 mV to - 80 mV (-1.2 mV/ms). This voltage
# 130 pattern was repeated at 0.1 Hz, with peak Nav1.5 defined as the maximum current during the step
# 131 to - 15 mV. All studies were conducted at 23° C.
# 132 Compounds were dissol ved and initially diluted in dimethyl sulfoxide (DMSO), with a final
# 133 dilution in external solution to generate final working concent rations. The final DMSO
# 134 concentration in all experiments was 0.33% (v/v).
# 135 For all protocols three vehicle periods each lasting 5 minutes were applied to establish a stable
# 136 baseline. For the standard protocol this was followed by the addition of increasing concentrations
# 137 of test compound, with each exposure lasting 5 minutes. For the “extended” protocol following
# 138 the three- vehi cle additional each well subsequentl y received a single concentration of compound.
# 139 This application was repeated three times for each well, via a flowthrough addition where the
# 140 solution was replaced wi th the same compound concentration with each addition. Each exposure
# 142 Patch clamp data were analyzed using Assay Software 6.4.72 (Sophion Bioscience A/S, Ballerup,
# 143 Denmark). Current amplitudes were determined by averaging the last 4 currents under each test
# 144 condition. The percentage inhibition of each compound was determined by taking the ratio of
# 145 current amplitude measured in the presence of various concentrations of the test compound
# 146 (ICompound) versus the vehicle control current (IVehicle):
# 148 A dose-response curve was generat ed and fit to the Hill equation by the Sophion Analyzer software
# 149 to determine an IC50 value for each compound. The minimum and the slope of the fit were free
# 150 fitted, with the top being fixed to 100% inhibition. […]
# Sequence of Cav1.2 (Q13936 whole entry): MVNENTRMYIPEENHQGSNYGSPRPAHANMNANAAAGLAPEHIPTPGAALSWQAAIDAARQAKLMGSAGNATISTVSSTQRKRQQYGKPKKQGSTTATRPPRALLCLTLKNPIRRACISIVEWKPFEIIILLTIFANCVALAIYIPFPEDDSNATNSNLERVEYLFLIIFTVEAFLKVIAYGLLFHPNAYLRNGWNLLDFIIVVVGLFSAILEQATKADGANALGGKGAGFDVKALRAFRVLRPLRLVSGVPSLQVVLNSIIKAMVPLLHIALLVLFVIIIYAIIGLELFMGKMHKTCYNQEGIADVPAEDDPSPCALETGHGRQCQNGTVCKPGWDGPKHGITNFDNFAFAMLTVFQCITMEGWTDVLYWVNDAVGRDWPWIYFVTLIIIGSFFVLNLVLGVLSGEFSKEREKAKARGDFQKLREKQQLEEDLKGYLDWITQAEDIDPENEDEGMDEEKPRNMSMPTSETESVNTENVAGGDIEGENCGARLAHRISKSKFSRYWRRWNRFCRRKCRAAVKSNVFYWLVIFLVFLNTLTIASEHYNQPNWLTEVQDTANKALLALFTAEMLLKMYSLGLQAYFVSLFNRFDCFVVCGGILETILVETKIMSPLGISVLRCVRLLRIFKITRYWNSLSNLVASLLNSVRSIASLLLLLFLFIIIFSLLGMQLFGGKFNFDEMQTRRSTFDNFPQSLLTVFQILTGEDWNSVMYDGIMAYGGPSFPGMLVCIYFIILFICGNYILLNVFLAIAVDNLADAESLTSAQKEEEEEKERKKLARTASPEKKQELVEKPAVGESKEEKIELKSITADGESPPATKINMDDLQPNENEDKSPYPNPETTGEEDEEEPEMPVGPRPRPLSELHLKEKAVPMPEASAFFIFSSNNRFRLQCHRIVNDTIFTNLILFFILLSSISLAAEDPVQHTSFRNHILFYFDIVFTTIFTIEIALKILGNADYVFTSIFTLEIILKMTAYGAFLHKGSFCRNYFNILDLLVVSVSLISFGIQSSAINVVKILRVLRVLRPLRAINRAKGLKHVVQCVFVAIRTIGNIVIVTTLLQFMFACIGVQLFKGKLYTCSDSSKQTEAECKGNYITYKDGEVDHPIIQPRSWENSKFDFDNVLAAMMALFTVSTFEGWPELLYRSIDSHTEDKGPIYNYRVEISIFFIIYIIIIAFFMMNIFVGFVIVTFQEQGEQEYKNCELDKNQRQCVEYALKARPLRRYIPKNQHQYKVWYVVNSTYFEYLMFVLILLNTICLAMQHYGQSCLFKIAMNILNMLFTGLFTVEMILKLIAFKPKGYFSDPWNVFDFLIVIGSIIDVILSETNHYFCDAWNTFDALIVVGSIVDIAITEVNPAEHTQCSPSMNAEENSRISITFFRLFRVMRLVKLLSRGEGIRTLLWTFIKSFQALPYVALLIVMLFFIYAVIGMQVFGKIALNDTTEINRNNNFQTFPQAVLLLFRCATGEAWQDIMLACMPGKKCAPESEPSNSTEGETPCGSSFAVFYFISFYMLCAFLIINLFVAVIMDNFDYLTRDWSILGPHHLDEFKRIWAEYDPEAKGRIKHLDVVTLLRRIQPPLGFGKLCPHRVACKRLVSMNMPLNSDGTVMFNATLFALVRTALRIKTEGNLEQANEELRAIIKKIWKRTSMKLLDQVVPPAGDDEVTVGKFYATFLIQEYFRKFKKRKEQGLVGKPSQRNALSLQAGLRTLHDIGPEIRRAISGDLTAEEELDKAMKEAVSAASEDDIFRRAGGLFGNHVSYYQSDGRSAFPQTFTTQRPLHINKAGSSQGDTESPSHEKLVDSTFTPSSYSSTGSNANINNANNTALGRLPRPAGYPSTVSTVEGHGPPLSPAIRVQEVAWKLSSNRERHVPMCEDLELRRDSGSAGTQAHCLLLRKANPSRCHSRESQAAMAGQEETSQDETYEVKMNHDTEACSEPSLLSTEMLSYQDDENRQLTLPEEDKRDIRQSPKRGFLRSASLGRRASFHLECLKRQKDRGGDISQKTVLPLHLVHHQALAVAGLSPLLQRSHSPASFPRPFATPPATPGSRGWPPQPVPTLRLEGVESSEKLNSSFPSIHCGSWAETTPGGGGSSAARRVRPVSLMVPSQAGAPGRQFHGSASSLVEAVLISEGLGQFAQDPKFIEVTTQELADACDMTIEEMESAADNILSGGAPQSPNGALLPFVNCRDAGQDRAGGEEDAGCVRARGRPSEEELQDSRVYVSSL
# Sequence of Cav1.2 (Q08289 whole entry partner): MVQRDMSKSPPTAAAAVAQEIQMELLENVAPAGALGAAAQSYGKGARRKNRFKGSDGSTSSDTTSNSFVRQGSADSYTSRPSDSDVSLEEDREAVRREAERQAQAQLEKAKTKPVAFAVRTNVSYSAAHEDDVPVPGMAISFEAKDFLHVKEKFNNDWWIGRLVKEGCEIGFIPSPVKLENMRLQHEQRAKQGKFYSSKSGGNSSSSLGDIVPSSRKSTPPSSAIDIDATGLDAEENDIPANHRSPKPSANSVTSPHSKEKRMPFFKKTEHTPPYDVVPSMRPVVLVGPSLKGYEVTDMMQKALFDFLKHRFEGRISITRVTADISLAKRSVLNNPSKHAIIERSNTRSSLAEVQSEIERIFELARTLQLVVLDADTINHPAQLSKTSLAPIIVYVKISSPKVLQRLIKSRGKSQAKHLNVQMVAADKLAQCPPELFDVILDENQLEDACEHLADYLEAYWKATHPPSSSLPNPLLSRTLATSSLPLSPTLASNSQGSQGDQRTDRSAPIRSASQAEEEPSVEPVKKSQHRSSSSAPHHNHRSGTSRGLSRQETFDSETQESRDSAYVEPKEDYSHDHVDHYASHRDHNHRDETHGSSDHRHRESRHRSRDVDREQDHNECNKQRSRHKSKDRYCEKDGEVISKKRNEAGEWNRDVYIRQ
# Sequence of Cav1.2 (P54289 25-956 partner limits assumed): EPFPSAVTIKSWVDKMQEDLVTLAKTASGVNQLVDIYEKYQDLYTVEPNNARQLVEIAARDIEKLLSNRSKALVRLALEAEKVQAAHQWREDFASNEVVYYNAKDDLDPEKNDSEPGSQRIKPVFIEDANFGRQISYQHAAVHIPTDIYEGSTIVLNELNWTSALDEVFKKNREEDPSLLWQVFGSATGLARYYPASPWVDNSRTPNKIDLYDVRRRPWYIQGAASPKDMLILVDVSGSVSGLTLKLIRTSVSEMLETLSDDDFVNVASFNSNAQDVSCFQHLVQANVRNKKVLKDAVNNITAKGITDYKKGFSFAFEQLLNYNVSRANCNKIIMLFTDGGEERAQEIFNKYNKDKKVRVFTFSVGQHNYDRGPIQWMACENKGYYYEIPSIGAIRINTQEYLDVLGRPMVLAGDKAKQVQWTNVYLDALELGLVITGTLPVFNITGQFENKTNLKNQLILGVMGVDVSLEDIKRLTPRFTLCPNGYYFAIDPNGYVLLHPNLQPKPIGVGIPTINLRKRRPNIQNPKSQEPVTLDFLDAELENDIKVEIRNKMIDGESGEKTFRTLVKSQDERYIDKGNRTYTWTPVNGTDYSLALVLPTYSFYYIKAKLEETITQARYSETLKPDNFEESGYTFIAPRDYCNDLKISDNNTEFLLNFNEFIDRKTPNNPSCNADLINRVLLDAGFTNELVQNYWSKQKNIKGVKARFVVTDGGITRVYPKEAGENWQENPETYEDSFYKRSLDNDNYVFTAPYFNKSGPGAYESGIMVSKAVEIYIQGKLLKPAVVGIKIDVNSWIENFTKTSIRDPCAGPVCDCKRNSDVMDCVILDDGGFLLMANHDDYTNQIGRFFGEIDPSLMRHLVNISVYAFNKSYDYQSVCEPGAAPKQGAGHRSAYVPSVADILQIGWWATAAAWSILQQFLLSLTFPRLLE
# Sequence of Cav1.2 (P54289 957-1103 partner limits assumed): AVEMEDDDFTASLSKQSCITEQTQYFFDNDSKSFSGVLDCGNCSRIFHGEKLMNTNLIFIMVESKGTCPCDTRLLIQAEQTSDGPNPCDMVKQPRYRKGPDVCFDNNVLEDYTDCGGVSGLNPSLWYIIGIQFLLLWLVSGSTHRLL
smiles,measurement,setting,value
CCOc1cc(C)nc(N(CCOC)S(=O)(=O)c2ccc(NCc3c(F)cncc3F)nc2OC)n1 [Compound 1],IC50,"IC50 (nM), Calcium Channel Cav1 (so in the source), standard protocol",44800 nM
same,IC50,"Ion Channel Extended Protocol IC50 (nM), Period 1st, Cav1.2, extended protocol, 1st period",21100 nM
same,IC50,"Ion Channel Extended Protocol IC50 (nM), Period 2nd, Cav1.2, extended protocol, 2nd period",10700 nM
same,IC50,"Ion Channel Extended Protocol IC50 (nM), Period 3rd, Cav1.2, extended protocol, 3rd period",5930 nM
